Test results from article PMC7734798 (ACS Medicinal Chemistry Letters, 2020).

Tests used:
[1] = Rat plasma stability assay (LC-DAD-MS/MS); assay type: in vitro ADME; conditions: 1 h of incubation at 37 °C
Protocol: Our aim was to develop plasma-stable conjugates that would be hydrolyzed in the brain. Selective localized hydrolysis of conjugates 1 and 2 would permit a CNS-targeted profile and less side effects. Thus, plasma stability is an important pharmacokinetic prerequisite for 1 and 2. As reported by stability assays performed by LC-DAD-MS/MS analysis (Figure 3), conjugates 1 and 2 are stable for more than 85% after 1 h of incubation at 37 °C in rat plasma. […] The mean plasma remaining fraction of the two conjugates after 1 h of incubation was compared by means of t test and a statistically relevant difference (p < 0.01) was observed.
Velp (Usmate, Italy) RX3 vortex mixer and an Elma (Singen, Germany) Sonic T310 Trans ultrasonic […]
Chromatographic runs were obtained on an Agilent (Palo Alto, Ca, US) ZORBAX SB-C18 column (50 × 2.1 mm I.D., 3.5 µm particles), maintained at room temperature and equipped with a guard column. […] For compound stability and hydrolysis studies, multiple reaction monitoring (MRM) acquisition mode was set up for both compounds 1 and 2, by flow-injection analysis directly in the MS source, in order to optimize ionization parameters and to select two exclusive MRM m/z transitions for each analyte, exploited for quantitative purposes and for qualitative confirmation, respectively. […]

Olig2 = assay: Oli-Neu proliferation marker Olig2 expression (Western blot); assay type: cell-based, mouse; conditions: Oli-Neu cells, 5 μM, 48 h
Excerpt: OPC proliferation and migration to the CNS injury site as well as their differentiation are critical steps toward remyelination in MS. HDAC activity plays a crucial role in OPC proliferation/differentiation; therefore, HDAC modulation is widely considered a promising therapeutic target for MS.[30] […] Therefore, we tested the effect of our compounds on OPC proliferation and differentiation, through cell counting, measure of filaments, and analysis of proliferation/differentiation markers (Figure 7).
Oli-Neu cells were grown in SATO medium (DMEM medium, 2 mM glutamine, 10 μg/ml insulin, 5.5 μg/ml transferrin, 38.72 nM sodium selenite, 100 µM putrescine, 520 nM L-thyroxine (T4), 500 nM triiodo-L-thyronine (T3), 200 nM progesterone, 25 μg/ml of gentamycin) supplemented with 1% heat-inactivated horse serum (HS) in a humidified, 5% CO2 incubator at 37°C. Cell culture medium and all chemicals were from Sigma-Aldrich, except for insulin-transferrin-sodium selenite 100X supplement (Life Technologies Corporation). Cells were plated on 96 well plates, previously coated with 10 μg/mL poly-L-lysine (Sigma-Aldrich; 10 μg/ml) at the density of 2.5 x 10 4/0.2 mL medium/well and treated with increasing concentrations of the compounds (0.5, 1, 5 and 10 μM).
After 24 hours, the viability was evaluated through the MTT assay.
Oli-Neu cells proliferation and differentiation assay
48 hours, for cell counting and measure of filaments, 5 random images for each condition were acquired with an Eclipse TS100 (Nikon) microscope using a 10X objective. Cells number and filament length were measured with Fiji ImageJ2 software. After 48 hours for proliferation and 72 hours of treatment for differentiation analysis, cells were lysed in ice-cold lysis buffer (50 mM Tris-HCl pH 7.4, 1% SDS, 0.05% protease inhibitor cocktail; all from Sigma-Aldrich) and protein content was determined by using the Lowry method. […]

Structure (SMILES)	percentage remaining upon incubation in rat plasma [1]	expression of Olig2, marker of OPCs proliferation (Olig2)
CC/C=C\C/C=C\C/C=C\CCCCCCCC(=O)NCCOC(=O)C(CCC)CCC [compound 2]	85%	marked decrease
CC/C=C\C/C=C\C/C=C\CCCCCCCC(=O)NCCNC(=O)C(CCC)CCC [compound 1]	89%	marked decrease
